The values below come from paper PMC8839659, “Evolution of DIMBOA-Glc O-Methyltransferases from Flavonoid O-Methyltransferases in the Grasses” (Molecules, 2022).

Assay in all cases: LC-MS/MS product formation
Format in all cases: biochemical

One assay deals with T1, ZmBX10 (Zea mays, UniProt S5S768).
T1 construct: pASK-IBA37plus, N-terminal His tag, E. coli BL21(DE3), purified
T1 sequence (S5S768 1-375): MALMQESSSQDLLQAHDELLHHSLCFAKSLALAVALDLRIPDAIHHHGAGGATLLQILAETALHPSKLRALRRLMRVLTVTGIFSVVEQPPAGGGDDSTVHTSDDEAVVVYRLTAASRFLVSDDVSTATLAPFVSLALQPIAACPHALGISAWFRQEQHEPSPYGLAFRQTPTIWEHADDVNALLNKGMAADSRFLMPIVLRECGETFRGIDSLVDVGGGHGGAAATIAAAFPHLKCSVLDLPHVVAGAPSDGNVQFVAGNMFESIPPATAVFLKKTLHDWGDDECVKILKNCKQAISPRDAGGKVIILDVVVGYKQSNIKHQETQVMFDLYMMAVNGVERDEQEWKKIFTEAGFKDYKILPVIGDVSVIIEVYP
The conditions noted are these: SAM cosubstrate 100 µM; 20 µM substrate; pH 7; 25 °C; 1 h; product isokaempferide.

Another assay addresses T2, ZnBX10 (Zea nicaraguensis, UniProt Z9J3M6HYI4).
T2 construct: full-length ORF, codon-optimized synthetic gene in pET100/D-TOPO, N-terminal His tag, E. coli BL21(DE3), purified
T2 sequence (Z9J3M6HYI4 1-373): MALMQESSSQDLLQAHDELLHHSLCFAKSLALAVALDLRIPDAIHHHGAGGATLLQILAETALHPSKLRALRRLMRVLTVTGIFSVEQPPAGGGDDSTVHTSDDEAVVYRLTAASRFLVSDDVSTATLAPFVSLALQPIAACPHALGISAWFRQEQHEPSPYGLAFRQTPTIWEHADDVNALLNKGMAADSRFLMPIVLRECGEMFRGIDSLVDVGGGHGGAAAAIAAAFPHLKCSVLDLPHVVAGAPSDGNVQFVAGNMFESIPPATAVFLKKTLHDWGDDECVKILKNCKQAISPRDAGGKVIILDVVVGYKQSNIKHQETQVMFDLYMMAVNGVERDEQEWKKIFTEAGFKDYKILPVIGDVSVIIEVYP
The conditions noted are these: SAM cosubstrate 100 µM, 20 µM substrate, pH 7, 25 °C, 1 h.

The target in the next assay is T3, SbFOMT2 (Sorghum bicolor, UniProt C5WYJ6).
T3 construct: gene SORBI_3001G354400; full-length ORF from leaf cDNA, in pET100/D-TOPO or pASK-IBA37plus, N-terminal His tag, E. coli BL21(DE3), purified
T3 sequence (C5WYJ6 1-365): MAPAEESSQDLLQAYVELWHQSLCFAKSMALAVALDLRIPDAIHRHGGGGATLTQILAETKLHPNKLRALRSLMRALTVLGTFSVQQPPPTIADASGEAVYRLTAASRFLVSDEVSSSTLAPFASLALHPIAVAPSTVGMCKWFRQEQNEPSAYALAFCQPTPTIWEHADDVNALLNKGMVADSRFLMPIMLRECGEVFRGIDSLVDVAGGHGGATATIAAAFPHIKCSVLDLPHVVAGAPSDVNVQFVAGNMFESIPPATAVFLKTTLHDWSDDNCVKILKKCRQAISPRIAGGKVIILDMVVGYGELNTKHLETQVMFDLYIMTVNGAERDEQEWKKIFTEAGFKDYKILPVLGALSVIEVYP
The following applies: SAM cosubstrate 100 µM; 20 µM substrate; pH 7; 25 °C; 1 h; flavonoid 5-O-methylation, trace isokaempferide.

The target in another assay is T4, ZmBX14 (Zea mays, UniProt A0A1P8SEU3).
T4 construct: pASK-IBA37plus, N-terminal His tag, E. coli BL21(DE3), purified
T4 sequence (A0A1P8SEU3 1-366): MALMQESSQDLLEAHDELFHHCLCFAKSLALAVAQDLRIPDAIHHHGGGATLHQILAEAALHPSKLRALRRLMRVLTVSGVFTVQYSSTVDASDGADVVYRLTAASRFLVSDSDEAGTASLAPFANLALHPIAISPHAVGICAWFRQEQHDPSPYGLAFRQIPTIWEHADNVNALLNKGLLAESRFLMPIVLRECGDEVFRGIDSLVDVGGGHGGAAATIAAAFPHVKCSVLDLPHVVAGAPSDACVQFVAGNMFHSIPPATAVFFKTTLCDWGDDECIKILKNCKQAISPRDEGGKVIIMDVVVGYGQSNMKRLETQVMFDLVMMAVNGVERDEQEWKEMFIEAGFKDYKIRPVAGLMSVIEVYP
The following applies: SAM cosubstrate 100 µM, 20 µM substrate, pH 7, 25 °C, 1 h.

For the next assay, the target named is T5, ZmBX11 (Zea mays, UniProt S5RK83).
T5 construct: pASK-IBA37plus, N-terminal His tag, E. coli BL21(DE3), purified
T5 sequence (S5RK83 1-375): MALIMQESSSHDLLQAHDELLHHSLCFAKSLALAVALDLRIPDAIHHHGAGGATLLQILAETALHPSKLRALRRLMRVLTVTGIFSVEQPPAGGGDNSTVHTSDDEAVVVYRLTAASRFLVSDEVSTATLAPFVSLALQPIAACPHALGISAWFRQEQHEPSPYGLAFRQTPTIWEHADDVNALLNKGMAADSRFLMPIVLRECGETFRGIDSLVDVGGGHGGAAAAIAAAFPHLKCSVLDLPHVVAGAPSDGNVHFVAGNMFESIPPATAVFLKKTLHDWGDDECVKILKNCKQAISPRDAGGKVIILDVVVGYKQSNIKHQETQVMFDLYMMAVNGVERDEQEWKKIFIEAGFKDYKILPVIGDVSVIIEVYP
The following applies: SAM cosubstrate 100 µM; 20 µM substrate; pH 7; 25 °C; 1 h; product isokaempferide.

A further assay addresses T6, ZmBX12 (Zea mays, UniProt S5S8L0).
T6 construct: pASK-IBA37plus, N-terminal His tag, E. coli BL21(DE3), purified
T6 sequence (S5S8L0 1-370): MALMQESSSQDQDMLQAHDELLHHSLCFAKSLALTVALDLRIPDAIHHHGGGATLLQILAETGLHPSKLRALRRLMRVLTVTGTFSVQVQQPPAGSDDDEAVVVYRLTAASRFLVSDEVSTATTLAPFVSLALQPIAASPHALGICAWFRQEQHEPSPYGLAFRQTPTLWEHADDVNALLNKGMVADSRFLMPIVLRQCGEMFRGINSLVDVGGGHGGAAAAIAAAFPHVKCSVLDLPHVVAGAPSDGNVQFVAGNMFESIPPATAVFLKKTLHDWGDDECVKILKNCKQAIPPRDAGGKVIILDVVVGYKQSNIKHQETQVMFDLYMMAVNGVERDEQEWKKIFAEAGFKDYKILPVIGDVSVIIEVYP
The conditions noted are these: SAM cosubstrate 100 µM, 20 µM substrate, pH 7, 25 °C, 1 h.

Setting [1] is: product HDMBOA-Glc, positive control.

Take `O=c1c(O)c(-c2ccc(O)cc2)oc2cc(O)cc(O)c12` [kaempferol]: the LC-MS/MS product formation result at ZmBX10 is “ZmBX10-12 and ZnBX10 produced substantial amounts of the 3-O-methylated derivative isokaempferide”; on ZnBX10 (product isokaempferide) it was “ZmBX10-12 and ZnBX10 produced substantial amounts of the 3-O-methylated derivative isokaempferide”; on SbFOMT2 it was “ZmFOMT2 and SbFOMT2 produced only trace amounts of this compound”; at ZmBX14 (lowest activity of the maize BX OMTs), “with ZmBX12 as the most active OMT, followed by ZmBX10, ZmBX11, and ZmBX14”; on ZmBX11 it was “ZmBX10-12 and ZnBX10 produced substantial amounts of the 3-O-methylated derivative isokaempferide”; at ZmBX12 (product isokaempferide) it was “with ZmBX12 as the most active OMT, followed by ZmBX10, ZmBX11, and ZmBX14”.

For `COc1ccc2c(c1)O[C@H](O[C@@H]1O[C@H](CO)[C@@H](O)[C@H](O)[C@H]1O)C(=O)N2O` [DIMBOA-Glc, 2,4-dihydroxy-7-methoxy-1,4-benzoxazin-3-one glucoside], the LC-MS/MS product formation result on ZnBX10 (product HDMBOA-Glc) was “ZnBX10 also converted DIMBOA-Glc to HDMBOA-Glc”; at ZmBX14 (setting [1]), “Besides ZmBX14 and ZmBX12, ZnBX10 also converted DIMBOA-Glc to HDMBOA-Glc”; at ZmBX12 (setting [1]) it was “Besides ZmBX14 and ZmBX12, ZnBX10 also converted DIMBOA-Glc to HDMBOA-Glc”.
